Consider 10 molecules from ChEMBL document CHEMBL1153647, “Inhibitors of human leukocyte elastase. 3.1 inhibition by tetrahydrobenzisothiazolinylmethyl aryl carboxylates” (Bioorg Med Chem Lett, 1995).

One assay addresses T1, Neutrophil elastase (Homo sapiens, UniProt P08246).
T1 sequence (P08246 whole entry): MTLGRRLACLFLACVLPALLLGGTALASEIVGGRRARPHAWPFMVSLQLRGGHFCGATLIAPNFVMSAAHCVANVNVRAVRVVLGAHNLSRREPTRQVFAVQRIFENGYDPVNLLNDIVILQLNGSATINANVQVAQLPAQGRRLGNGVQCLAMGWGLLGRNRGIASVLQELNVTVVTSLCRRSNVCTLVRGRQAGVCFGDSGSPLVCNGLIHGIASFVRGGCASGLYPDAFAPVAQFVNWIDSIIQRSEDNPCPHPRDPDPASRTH
Put plainly: Ratio of Kreact to that of Kinact was determined on human leukocyte elastase(HLE).
Turning to `CC1CCCC2=C1C(=O)N(COC(=O)c1c(Cl)cccc1Cl)S2(=O)=O` (stereo not drawn), the Ki was 1 nM.
On the same count and under the same terms, then `CC1(C)CCCC2=C1C(=O)N(COC(=O)c1c(Cl)cccc1Cl)S2(=O)=O`, with 1 nM; and `CCC1CCCC2=C1C(=O)N(COC(=O)c1c(Cl)cccc1Cl)S2(=O)=O` (stereo not drawn), with 0.7 nM; and `O=C(OCN1C(=O)C2=C(CCCCC2)S1(=O)=O)c1c(Cl)cccc1Cl`, with 100 nM.
On the same count and under the same terms, then `O=C(OCN1C(=O)C2=C(CCC2)S1(=O)=O)c1c(Cl)cccc1Cl`, with 5 nM.
On the same count and under the same terms, then `O=C(OCN1C(=O)C2=C(C3CCC2C3)S1(=O)=O)c1c(Cl)cccc1Cl` (stereo not drawn), with 0.8 nM; and `CC(C)C1CCCC2=C1C(=O)N(COC(=O)c1c(Cl)cccc1Cl)S2(=O)=O` (stereo not drawn), with 1 nM.

The target of a further assay is T2, Neutrophil elastase (Homo sapiens) (UniProt P08246).
T2 sequence (whole entry): T1 sequence (P08246 whole entry)
In words: Compound was evaluated for the inhibitory activity against Human leukocyte elastase.
With `O=C(OCN1C(=O)C2=C(CCCC2)S1(=O)=O)c1c(Cl)cccc1Cl`, the K inact was 3300 M⁻¹ s⁻¹ and the Kreact is 5.9e-05 s⁻¹.

A further assay concerns the target T1, Neutrophil elastase. Put plainly: Observed binding affinity against Human leukocyte elastase (HLE).
The molecule `CC1CCCC2=C1C(=O)N(COC(=O)c1c(Cl)cccc1Cl)S2(=O)=O` (stereo not drawn) gave an inhibitory constant (Ki) of 1 nM.
On the same count and under the same terms, the result for `CCc1cccc2c1C(=O)N(COC(=O)c1c(Cl)cccc1Cl)S2(=O)=O` reads 0.0708 nM; that for `CCC1CCCC2=C1C(=O)N(COC(=O)c1c(Cl)cccc1Cl)S2(=O)=O` (stereo not drawn), 0.708 nM; that for `CC(C)C1CCCC2=C1C(=O)N(COC(=O)c1c(Cl)cccc1Cl)S2(=O)=O` (stereo not drawn), 1 nM.

Another assay has as its target T2, Neutrophil elastase (Homo sapiens).
Description: (§1) Compound was evaluated for the inhibitory activity against Human leukocyte elastase (HLE)
For the molecule `CC1CCCC2=C1C(=O)N(COC(=O)c1c(Cl)cccc1Cl)S2(=O)=O` (stereo not drawn), the K inact stood at 36000 M⁻¹ s⁻¹.
As to `CC1(C)CCCC2=C1C(=O)N(COC(=O)c1c(Cl)cccc1Cl)S2(=O)=O`, the K inact was 18500 M⁻¹ s⁻¹.
On the same count and under the same terms, then `CCC1CCCC2=C1C(=O)N(COC(=O)c1c(Cl)cccc1Cl)S2(=O)=O` (stereo not drawn), with 83000 M⁻¹ s⁻¹; and `CC(C)C1CCCC2=C1C(=O)N(COC(=O)c1c(Cl)cccc1Cl)S2(=O)=O` (stereo not drawn), with 10000 M⁻¹ s⁻¹.
The molecule `CC(C)c1cccc2c1C(=O)N(COC(=O)c1c(Cl)cccc1Cl)S2(=O)=O` gave a K inact of 900000 M⁻¹ s⁻¹.

The target is the same in the next assay. This is another data set of the same source.
Description: as §1
The molecule `CC1CCCC2=C1C(=O)N(COC(=O)c1c(Cl)cccc1Cl)S2(=O)=O` (stereo not drawn) had a Kreact of 3.6e-05 s⁻¹.
On the same count and under the same terms, the result for `CC1(C)CCCC2=C1C(=O)N(COC(=O)c1c(Cl)cccc1Cl)S2(=O)=O` reads 1.8e-05 s⁻¹; that for `CCC1CCCC2=C1C(=O)N(COC(=O)c1c(Cl)cccc1Cl)S2(=O)=O` (stereo not drawn), 5.8e-05 s⁻¹; that for `CC(C)C1CCCC2=C1C(=O)N(COC(=O)c1c(Cl)cccc1Cl)S2(=O)=O` (stereo not drawn), 1e-05 s⁻¹.
On to `CC(C)c1cccc2c1C(=O)N(COC(=O)c1c(Cl)cccc1Cl)S2(=O)=O`, for which the Kreact came to 2.7e-05 s⁻¹.
